Experimental data published in the NIST ThermoML archive (doi:10.1016/j.jct.2010.08.002).
± gives the expanded uncertainty stated by the source.

Settings: for mass density: Liquid

Structure (SMILES)	surface tension liquid-gas (293.15 K) [mN/m]	mass density (293.15 K) [kg/m3]	surface tension liquid-gas (298.15 K) [mN/m]	mass density (298.15 K) [kg/m3]	surface tension liquid-gas (303.15 K) [mN/m]	mass density (303.15 K) [kg/m3]	surface tension liquid-gas (308.15 K) [mN/m]	mass density (308.15 K) [kg/m3]	surface tension liquid-gas (313.15 K) [mN/m]	mass density (313.15 K) [kg/m3]	surface tension liquid-gas (318.15 K) [mN/m]	mass density (318.15 K) [kg/m3]	surface tension liquid-gas (323.15 K) [mN/m]	mass density (323.15 K) [kg/m3]	surface tension liquid-gas (328.15 K) [mN/m]	mass density (328.15 K) [kg/m3]	surface tension liquid-gas (333.15 K) [mN/m]	mass density (333.15 K) [kg/m3]	surface tension liquid-gas (338.15 K) [mN/m]	mass density (338.15 K) [kg/m3]
CCOP(=O)([O-])OCC.CCn1cc[n+](C)c1 [1-ethyl-3-methylimidazolium diethyl phosphate]	36.1 ± 1.3	1141.3 ± 3.9	35.88 ± 1.3	1140 ± 3.9	35.43 ± 1.3	1132.1 ± 3.8	35.3 ± 1.3	1129.7 ± 3.7	35.07 ± 1.3	1125.1 ± 3.7	34.61 ± 1.2	1120.4 ± 3.6	34.55 ± 1.2	1118 ± 3.5	34.21 ± 1.2	1112.9 ± 3.5	33.88 ± 1.2	1111.1 ± 3.4	33.75 ± 1.2	1108 ± 3
COP(=O)([O-])OC.Cn1cc[n+](C)c1 [1,3-dimethylimidazolium dimethylphosphate]	47.42 ± 1.6	1244 ± 5.7	47.09 ± 1.6	1242 ± 5.7	47.11 ± 1.6	1238.7 ± 5.6	46.28 ± 1.6	1234.9 ± 5.5	45.11 ± 1.6	1229.7 ± 5.5	44.44 ± 1.6	1226.8 ± 5.4	43.01 ± 1.5	1223.9 ± 5.4	42.58 ± 1.5	1218.5 ± 5.3	41.88 ± 1.5	1214.8 ± 5.2	41.33 ± 1.4	1210.4 ± 5.1
